From patent US5075449A, “Method of optically resolving (±)-1-(3-pyridylcarbonyl)-5-methyl-2-pyrazoline” (Mitsui Toatsu Chemicals, Inc., priority 1988, dated 1991)

Assays:
[1] = system: infarcted lesions caused by the occlusion of middle cerebral artery in rat; assay: Effect on cerebral ischemic (infarcted) lesions caused by occlusion of middle cerebral artery in rat; assay type: in vivo, Rat (male Sprague Dawley); settings: rat MCA occlusion; for Infarcted lesions (ratio of infarcted lesions to total area) / Reduction ratio of infarcted lesions: i.v. infusion 10 mg/kg/hr for 24 hours; for Infarcted lesions (ratio of infarcted lesions to total area): TTC staining, control group 16.1, * P < 0.05, ** P < 0.001 to control; for Reduction ratio of infarcted lesions: infarcted lesions of control group defined as 100%
Method: (§1) Rat middle cerebral artery was occluded according to the method of Tamura et. al. (J. Cerebral Blood Flow and Metabolism, 53-60, 1981).
Male Sprague Dawley rats, aged 8 to 10 weeks, were occluded of their left middle cerebral artery under 2% halothane anesthesia. (-)-1-(3-Pyridylcarbonyl)-5-methyl-2-pyrazoline dissolved in 0.9% physiological saline was infused into rats through the caudal vein at a rate of 10 mg/kg/hr for 24 hours. A control group was intraveneously infused with 0.9% physiological saline for 24 hours. Rats were sacrificed to death 24 hours after the occlusion of the middle cerebral artery and brain was excised from each rat. After staining with TTC, the excised brain was cut in 6 identical parts from its top. Cross sections were photographed to measure the ratio of infarcted lesions to total area with a planimeter so that the reduction ratio of infarcted lesions by the drug administration was calculated, provided that the infarcted lesions of the control group was defined as 100%.

[2] = Acute toxicity (LD50), intravenous, rat; assay type: in vivo; settings: in vivo, iv, mortality up to 72 hours after administration
Method: (§2) The drug was intraveneously administered to rats and determined the mortality ratio up to 72 hours after the administration, to calculate 50% lethal dose (LD50) by acute toxicity according to the routine method.

[3] = system: cerebral edema caused by the occlusion of rat middle cerebral artery; assay: Suppression of ischemic cerebral edema caused by occlusion of middle cerebral artery in rat; assay type: in vivo, Rat (male Sprague Dawley); settings: rat MCA occlusion; for Suppression ratio of cerebral edema: i.v. infusion through caudal vein 3 or 10 mg/kg/hr for 24 hours (dose not given), brain water content at 24 hours, * P < 0.05, ** P < 0.001 to control
Method: as §1
Male Sprague Dawley rats, aged 8 to 10 weeks, were occluded of their left middle cerebral artery under 2% halothane anesthesia. (-)-1-(3-Pyridylcarbonyl)-5-methyl-2-pyrazoline dissolved in 0.9% physiological saline was infused into rats through the caudal vein at a rate of 3 or 10 mg/kg/hr for 24 hours. Rats were sacrificed to death 24 hours after the occlusion of the middle cerebral artery and brain was excised from each rat to determine the water contents in the two cerebral hemispheres, left and right, by the wet and dry weighing method. The occlusion of middle cerebral artery was also conducted on the control group of rats, and they were subsequently infused with 0.9% physiological saline for 24 hours similarly in the drug-administered group. The suppressive ratio of cerebral edema was determined by the following equation. [formula] Cl: Water contents in left cerebral hemisphere of control group CR: Water contents in right cerebral hemisphere of control group
SL: Water contents in left cerebral hemisphere of drug-administered group
SR: Water contents in right cerebral hemisphere of drug-administered group

rats = assay: Acute toxicity (LD50), intravenous, rat; assay type: in vivo; settings: for Acute toxicity LD50: mortality up to 72 hours after administration, 4320 min
Method: as §2

[4] = literature: Anesthesiology, 47, 285, 1977; Nippon Rinsho, 43, 185, 1985; cited from earlier work

Row | Structure (SMILES) | Infarcted lesions (ratio of infarcted lesions to total area) [1] [%] | Reduction ratio of infarcted lesions [1] | LD50 at 72 h [2] [mg/kg] | Suppression ratio of cerebral edema [3] [%] | Acute toxicity LD50 (rats) [mg/kg] | Effect on infarcted area (in words) ([1]; 10 mg/kg/hr for 24 hours) | Acute toxicity (in words) (rats) | Effect on cerebral edema (in words) [3] | Brain protective action / suppression of cerebral edema (in words) [4]
1 | CC1CC=NN1C(=O)c1cccnc1 (racemic) [Racemic modification, (±)-1-(3-Pyridylcarbonyl)-5-methyl-2-pyrazoline] | 11.0 | 32.0 | 800 | 18.7 | – | – | – | – | –
2 | CC1CC=NN1C(=O)c1cccnc1 (single isomer, unassigned; (+)) [(+)-form, (+)-1-(3-Pyridylcarbonyl)-5-methyl-2-pyrazoline] | – | – | – | 15.7 | 400 | – | – | – | –
3 | CC1CC=NN1C(=O)c1cccnc1 (single isomer, unassigned; (-)) [(-)-form, (-)-1-(3-Pyridylcarbonyl)-5-methyl-2-pyrazoline] | 8.5 | 48.9 | – | 28.4 | 1200 | significantly reduced the infarcted area caused by the occlusion of rat middle cerebral artery and it acted more strongly than the racemic modification | less than that of the racemic modification or (+)-form | significantly depressed cerebral edema caused by the occlusion of the middle cerebral artery in rats and it acted more strongly than the racemic modification or (+)-form | –
4 | CCCC(C)C1(CC)C(=O)NC(=O)NC1=O (centres unmarked) [pentobarbital] | – | – | – | – | – | – | – | – | protective action of brain against cerebral ischemia
